ChEMBL document CHEMBL1145390, “Synthesis and preliminary biological characterization of new semisynthetic derivatives of ramoplanin” (J Med Chem, 2007)
≈ marks a conversion by molar mass, not a printed value.

Assays:
Streptococcus pyogenes = assay: Antibacterial activity against Streptococcus pyogenes C203 after 24 hrs by broth microdilution method; format: functional; details: C203, 24 h, read-out: MIC
Enterococcus faecium [1] = assay: Antibacterial activity against vancomycin A-resistant Enterococcus faecium clinical isolate after 24 hrs by broth microdilution method; format: functional; details: read-out: MIC
Enterococcus faecalis [2] = assay: Antibacterial activity against Enterococcus faecalis after 24 hrs by broth microdilution method; format: functional; details: read-out: MIC
Staphylococcus aureus [3] = assay: Antibacterial activity against methicillin-resistant and vancomycin-intermediate resistant Staphylococcus aureus clinical isolate after 24 hrs by broth microdilution method; format: functional; details: read-out: MIC
Staphylococcus aureus [4] = assay: Antibacterial activity against vancomycin-intermediate resistant Staphylococcus aureus clinical isolate after 24 hrs by broth microdilution method; format: functional
Enterococcus faecium [5] = assay: Antibacterial activity against Enterococcus faecium after 24 hrs by broth microdilution method; format: functional; details: read-out: MIC
Staphylococcus aureus [6] = assay: Antibacterial activity against methicillin-resistant Staphylococcus aureus clinical isolate after 24 hrs by broth microdilution method; format: functional; details: read-out: MIC
Candida albicans = assay: Antifungal activity against Candida albicans SKF-2270 after 24 hrs by broth microdilution method; format: functional; details: read-out: MIC
[7] = Toxicity assessed as hemolysis in erythrocytes at 90 mg/L; format: cell-based, Erythrocyte; details: human, erythrocytes; read-out: Activity
Staphylococcus aureus [8] = assay: Antibacterial activity against Staphylococcus aureus Smith after 24 hrs by broth microdilution method; format: functional; details: read-out: MIC
Escherichia coli = assay: Antibacterial activity against Escherichia coli SKF-12140 after 24 hrs by broth microdilution method; format: functional; details: read-out: MIC
[9] = Toxicity assessed as hemolysis in erythrocytes at 180 mg/L; format: cell-based, Erythrocyte; details: human, erythrocytes; read-out: Activity
Enterococcus faecalis [10] = assay: Antibacterial activity against vancomycin A-resistant Enterococcus faecalis after 24 hrs by broth microdilution method; format: functional; details: read-out: MIC

| SMILES | MIC (Streptococcus pyogenes) | MIC (Enterococcus faecium [1]) | MIC (Enterococcus faecalis [2]) | MIC (Staphylococcus aureus [3]) | MIC (Staphylococcus aureus [4]) | MIC (Enterococcus faecium [5]) | MIC (Staphylococcus aureus [6]) | MIC (Candida albicans) | hemolysis at 90 mg/L [7] | MIC (Staphylococcus aureus [8]) | MIC (Escherichia coli) | hemolysis at 180 mg/L [9] | MIC (Enterococcus faecalis [10]) |
| --- | --- | --- | --- | --- | --- | --- | --- | --- | --- | --- | --- | --- | --- |
| CCCC(=O)N[C@@H](CC(N)=O)C(=O)NC[C@@H]1C(=O)N[C@H](c2ccc(O)cc2)C(=O)N[C@H](CCCN)C(=O)N[C@H](C(C)C)C(=O)N[C@@H](c2ccc(O)cc2)C(=O)N[C@H](c2ccc(O)cc2)C(=O)N[C@@H]([C@@H](C)O)C(=O)N[C@@H](Cc2ccccc2)C(=O)N[C@H](CCCN)C(=O)N[C@@H](c2ccc(O[C@H]3O[C@H](CO)[C@@H](O)[C@H](O)[C@@H]3O[C@H]3O[C@H](CO)[C@@H](O)[C@H](O)[C@@H]3O)cc2)C(=O)N[C@H]([C@@H](C)O)C(=O)N[C@@H](c2ccc(O)cc2)C(=O)NCC(=O)N[C@@H](CC(C)C)C(=O)N[C@H](C)C(=O)N[C@@H](c2ccc(O)c(Cl)c2)C(=O)O[C@@H]1C(N)=O | 0.5 µg/mL (≈ 0.2 µM) | 16 µg/mL (≈ 6.4 µM) | 16 µg/mL (≈ 6.4 µM) | > 32 µg/mL | > 32 µg/mL | 32 µg/mL (≈ 12.8 µM) | 32 µg/mL (≈ 12.8 µM) | > 32 µg/mL | 0% | > 32 µg/mL | > 32 µg/mL | 2% | 16 µg/mL (≈ 6.4 µM) |
| CC(C)C[C@@H]1NC(=O)CNC(=O)[C@H](c2ccc(O)cc2)NC(=O)[C@@H]([C@@H](C)O)NC(=O)[C@H](c2ccc(O[C@H]3O[C@H](CO)[C@@H](O)[C@H](O)[C@@H]3O[C@H]3O[C@H](CO)[C@@H](O)[C@H](O)[C@@H]3O)cc2)NC(=O)[C@@H](CCCN)NC(=O)[C@H](Cc2ccccc2)NC(=O)[C@H]([C@@H](C)O)NC(=O)[C@@H](c2ccc(O)cc2)NC(=O)[C@H](c2ccc(O)cc2)NC(=O)[C@@H](C(C)C)NC(=O)[C@@H](CCCN)NC(=O)[C@@H](c2ccc(O)cc2)NC(=O)[C@@H](CNC(=O)[C@H](CC(N)=O)NC(=O)Cc2ccc(Cl)cc2)[C@@H](C(N)=O)OC(=O)[C@H](c2ccc(O)c(Cl)c2)NC(=O)[C@@H](C)NC1=O | ≤ 0.03 µg/mL | 1 µg/mL (≈ 0.387 µM) | 0.5 µg/mL (≈ 0.194 µM) | 4 µg/mL (≈ 1.55 µM) | 2 µg/mL (≈ 0.774 µM) | 1 µg/mL (≈ 0.387 µM) | 0.5 µg/mL (≈ 0.194 µM) | > 32 µg/mL | 0% | 0.5 µg/mL (≈ 0.194 µM) | > 32 µg/mL | 0% | 0.5 µg/mL (≈ 0.194 µM) |
| CC(C)C[C@@H]1NC(=O)CNC(=O)[C@H](c2ccc(O)cc2)NC(=O)[C@@H]([C@@H](C)O)NC(=O)[C@H](c2ccc(O[C@H]3O[C@H](CO)[C@@H](O)[C@H](O)[C@@H]3O[C@H]3O[C@H](CO)[C@@H](O)[C@H](O)[C@@H]3O)cc2)NC(=O)[C@@H](CCCN)NC(=O)[C@H](Cc2ccccc2)NC(=O)[C@H]([C@@H](C)O)NC(=O)[C@@H](c2ccc(O)cc2)NC(=O)[C@H](c2ccc(O)cc2)NC(=O)[C@@H](C(C)C)NC(=O)[C@@H](CCCN)NC(=O)[C@@H](c2ccc(O)cc2)NC(=O)[C@@H](CNC(=O)[C@H](CC(N)=O)NC(=O)c2ccc(OCc3cccc(Cl)c3)cc2)[C@@H](C(N)=O)OC(=O)[C@H](c2ccc(O)c(Cl)c2)NC(=O)[C@@H](C)NC1=O | 0.13 µg/mL (≈ 0.0486 µM) | 0.25 µg/mL (≈ 0.0935 µM) | 0.5 µg/mL (≈ 0.187 µM) | 8 µg/mL (≈ 2.99 µM) | 8 µg/mL (≈ 2.99 µM) | 0.5 µg/mL (≈ 0.187 µM) | 2 µg/mL (≈ 0.748 µM) | > 32 µg/mL | 25% | 1 µg/mL (≈ 0.374 µM) | > 32 µg/mL | 100% | 0.13 µg/mL (≈ 0.0486 µM) |
| CCCCc1ccc(C(=O)N[C@@H](CC(N)=O)C(=O)NC[C@@H]2C(=O)N[C@H](c3ccc(O)cc3)C(=O)N[C@H](CCCN)C(=O)N[C@H](C(C)C)C(=O)N[C@@H](c3ccc(O)cc3)C(=O)N[C@H](c3ccc(O)cc3)C(=O)N[C@@H]([C@@H](C)O)C(=O)N[C@@H](Cc3ccccc3)C(=O)N[C@H](CCCN)C(=O)N[C@@H](c3ccc(O[C@H]4O[C@H](CO)[C@@H](O)[C@H](O)[C@@H]4O[C@H]4O[C@H](CO)[C@@H](O)[C@H](O)[C@@H]4O)cc3)C(=O)N[C@H]([C@@H](C)O)C(=O)N[C@@H](c3ccc(O)cc3)C(=O)NCC(=O)N[C@@H](CC(C)C)C(=O)N[C@H](C)C(=O)N[C@@H](c3ccc(O)c(Cl)c3)C(=O)O[C@@H]2C(N)=O)cc1 | < 0.03 µg/mL | 0.25 µg/mL (≈ 0.0965 µM) | 0.25 µg/mL (≈ 0.0965 µM) | 4 µg/mL (≈ 1.54 µM) | 2 µg/mL (≈ 0.772 µM) | 0.25 µg/mL (≈ 0.0965 µM) | 0.5 µg/mL (≈ 0.193 µM) | > 32 µg/mL | 47% | 0.25 µg/mL (≈ 0.0965 µM) | > 32 µg/mL | 91% | 0.25 µg/mL (≈ 0.0965 µM) |
| CCCCCCCCc1ccc(C(=O)N[C@@H](CC(N)=O)C(=O)NC[C@@H]2C(=O)N[C@H](c3ccc(O)cc3)C(=O)N[C@H](CCCN)C(=O)N[C@H](C(C)C)C(=O)N[C@@H](c3ccc(O)cc3)C(=O)N[C@H](c3ccc(O)cc3)C(=O)N[C@@H]([C@@H](C)O)C(=O)N[C@@H](Cc3ccccc3)C(=O)N[C@H](CCCN)C(=O)N[C@@H](c3ccc(O[C@H]4O[C@H](CO)[C@@H](O)[C@H](O)[C@@H]4O[C@H]4O[C@H](CO)[C@@H](O)[C@H](O)[C@@H]4O)cc3)C(=O)N[C@H]([C@@H](C)O)C(=O)N[C@@H](c3ccc(O)cc3)C(=O)NCC(=O)N[C@@H](CC(C)C)C(=O)N[C@H](C)C(=O)N[C@@H](c3ccc(O)c(Cl)c3)C(=O)O[C@@H]2C(N)=O)cc1 | 2 µg/mL (≈ 0.756 µM) | 4 µg/mL (≈ 1.51 µM) | 4 µg/mL (≈ 1.51 µM) | 16 µg/mL (≈ 6.05 µM) | 16 µg/mL (≈ 6.05 µM) | 4 µg/mL (≈ 1.51 µM) | 8 µg/mL (≈ 3.02 µM) | > 32 µg/mL | 95% | 8 µg/mL (≈ 3.02 µM) | > 32 µg/mL | 72% | 4 µg/mL (≈ 1.51 µM) |
| CC(C)C[C@@H]1NC(=O)CNC(=O)[C@H](c2ccc(O)cc2)NC(=O)[C@@H]([C@@H](C)O)NC(=O)[C@H](c2ccc(O[C@H]3O[C@H](CO)[C@@H](O)[C@H](O)[C@@H]3O[C@H]3O[C@H](CO)[C@@H](O)[C@H](O)[C@@H]3O)cc2)NC(=O)[C@@H](CCCN)NC(=O)[C@H](Cc2ccccc2)NC(=O)[C@H]([C@@H](C)O)NC(=O)[C@@H](c2ccc(O)cc2)NC(=O)[C@H](c2ccc(O)cc2)NC(=O)[C@@H](C(C)C)NC(=O)[C@@H](CCCN)NC(=O)[C@@H](c2ccc(O)cc2)NC(=O)[C@@H](CNC(=O)[C@H](CC(N)=O)NC(=O)c2ccc(C#N)cc2)[C@@H](C(N)=O)OC(=O)[C@H](c2ccc(O)c(Cl)c2)NC(=O)[C@@H](C)NC1=O | 0.06 µg/mL (≈ 0.0234 µM) | 4 µg/mL (≈ 1.56 µM) | 4 µg/mL (≈ 1.56 µM) | 32 µg/mL (≈ 12.5 µM) | 32 µg/mL (≈ 12.5 µM) | 8 µg/mL (≈ 3.13 µM) | 4 µg/mL (≈ 1.56 µM) | > 32 µg/mL | 2% | 8 µg/mL (≈ 3.13 µM) | > 32 µg/mL | 3% | 8 µg/mL (≈ 3.13 µM) |
| CC(C)C[C@@H]1NC(=O)CNC(=O)[C@H](c2ccc(O)cc2)NC(=O)[C@@H]([C@@H](C)O)NC(=O)[C@H](c2ccc(O[C@H]3O[C@H](CO)[C@@H](O)[C@H](O)[C@@H]3O[C@H]3O[C@H](CO)[C@@H](O)[C@H](O)[C@@H]3O)cc2)NC(=O)[C@@H](CCCN)NC(=O)[C@H](Cc2ccccc2)NC(=O)[C@H]([C@@H](C)O)NC(=O)[C@@H](c2ccc(O)cc2)NC(=O)[C@H](c2ccc(O)cc2)NC(=O)[C@@H](C(C)C)NC(=O)[C@@H](CCCN)NC(=O)[C@@H](c2ccc(O)cc2)NC(=O)[C@@H](CNC(=O)[C@H](CC(N)=O)NC(=O)c2cccc3ccccc23)[C@@H](C(N)=O)OC(=O)[C@H](c2ccc(O)c(Cl)c2)NC(=O)[C@@H](C)NC1=O | ≤ 0.03 µg/mL | 1 µg/mL (≈ 0.387 µM) | 0.5 µg/mL (≈ 0.193 µM) | 8 µg/mL (≈ 3.1 µM) | 8 µg/mL (≈ 3.1 µM) | 1 µg/mL (≈ 0.387 µM) | 2 µg/mL (≈ 0.774 µM) | > 32 µg/mL | 14% | 1 µg/mL (≈ 0.387 µM) | > 32 µg/mL | 25% | 0.5 µg/mL (≈ 0.193 µM) |
| CC(C)C[C@@H]1NC(=O)CNC(=O)[C@H](c2ccc(O)cc2)NC(=O)[C@@H]([C@@H](C)O)NC(=O)[C@H](c2ccc(O[C@H]3O[C@H](CO)[C@@H](O)[C@H](O)[C@@H]3O[C@H]3O[C@H](CO)[C@@H](O)[C@H](O)[C@@H]3O)cc2)NC(=O)[C@@H](CCCN)NC(=O)[C@H](Cc2ccccc2)NC(=O)[C@H]([C@@H](C)O)NC(=O)[C@@H](c2ccc(O)cc2)NC(=O)[C@H](c2ccc(O)cc2)NC(=O)[C@@H](C(C)C)NC(=O)[C@@H](CCCN)NC(=O)[C@@H](c2ccc(O)cc2)NC(=O)[C@@H](CNC(=O)[C@H](CC(N)=O)NC(=O)COc2ccccc2)[C@@H](C(N)=O)OC(=O)[C@H](c2ccc(O)c(Cl)c2)NC(=O)[C@@H](C)NC1=O | 0.06 µg/mL (≈ 0.0234 µM) | 4 µg/mL (≈ 1.56 µM) | 8 µg/mL (≈ 3.12 µM) | 32 µg/mL (≈ 12.5 µM) | 16 µg/mL (≈ 6.24 µM) | 4 µg/mL (≈ 1.56 µM) | 8 µg/mL (≈ 3.12 µM) | > 32 µg/mL | 0% | 4 µg/mL (≈ 1.56 µM) | > 32 µg/mL | 0% | 4 µg/mL (≈ 1.56 µM) |
